Data on 1 compound can be found in patent publication US20250108038A1 (priority 2023, published 2025).

The target of the data set is MDR1 (Homo sapiens, UniProt P08183). The data set can be described thus: Vesicular transport inhibition assay, MDR1 (N-methyl quinidine). The method, then: Vesicular transport assays were performed with inside-out membrane vesicles prepared from cells overexpressing human ABC (efflux) transporters. The transporters were expressed by SOLVO Biotechnology in mammalian (HEK293) cells. The mammalian cells were stably transfected with the ABC transporter of interest. The assays were conducted according to the actual SOLVO VT assay protocols (PR-ASY-VT-General Protocol for Vesicular Transport Inhibition Assays).
The membrane vesicle suspension was mixed with the ice-cold transport buffer, then the probe substrate solution was added. […] (for BCRP and MDR1). […] Reactions were quenched by the addition of 200 μL of ice-cold washing buffer and immediate filtration via glass fiber filters mounted to a 96-well plate (filter plate). The filters were washed (5×200 μL of ice-cold washing buffer), dried and the amount of substrate inside the filtered vesicles was determined by liquid scintillation counting.
Incubation with AMP provided background activity values for all data points.

In general, inhibition refers to how much of the control response was suppressed. Higher therefore signals strong suppression.

“Also recorded” adds a separate entry of the source.

Chain of MDR1 (P08183 whole entry): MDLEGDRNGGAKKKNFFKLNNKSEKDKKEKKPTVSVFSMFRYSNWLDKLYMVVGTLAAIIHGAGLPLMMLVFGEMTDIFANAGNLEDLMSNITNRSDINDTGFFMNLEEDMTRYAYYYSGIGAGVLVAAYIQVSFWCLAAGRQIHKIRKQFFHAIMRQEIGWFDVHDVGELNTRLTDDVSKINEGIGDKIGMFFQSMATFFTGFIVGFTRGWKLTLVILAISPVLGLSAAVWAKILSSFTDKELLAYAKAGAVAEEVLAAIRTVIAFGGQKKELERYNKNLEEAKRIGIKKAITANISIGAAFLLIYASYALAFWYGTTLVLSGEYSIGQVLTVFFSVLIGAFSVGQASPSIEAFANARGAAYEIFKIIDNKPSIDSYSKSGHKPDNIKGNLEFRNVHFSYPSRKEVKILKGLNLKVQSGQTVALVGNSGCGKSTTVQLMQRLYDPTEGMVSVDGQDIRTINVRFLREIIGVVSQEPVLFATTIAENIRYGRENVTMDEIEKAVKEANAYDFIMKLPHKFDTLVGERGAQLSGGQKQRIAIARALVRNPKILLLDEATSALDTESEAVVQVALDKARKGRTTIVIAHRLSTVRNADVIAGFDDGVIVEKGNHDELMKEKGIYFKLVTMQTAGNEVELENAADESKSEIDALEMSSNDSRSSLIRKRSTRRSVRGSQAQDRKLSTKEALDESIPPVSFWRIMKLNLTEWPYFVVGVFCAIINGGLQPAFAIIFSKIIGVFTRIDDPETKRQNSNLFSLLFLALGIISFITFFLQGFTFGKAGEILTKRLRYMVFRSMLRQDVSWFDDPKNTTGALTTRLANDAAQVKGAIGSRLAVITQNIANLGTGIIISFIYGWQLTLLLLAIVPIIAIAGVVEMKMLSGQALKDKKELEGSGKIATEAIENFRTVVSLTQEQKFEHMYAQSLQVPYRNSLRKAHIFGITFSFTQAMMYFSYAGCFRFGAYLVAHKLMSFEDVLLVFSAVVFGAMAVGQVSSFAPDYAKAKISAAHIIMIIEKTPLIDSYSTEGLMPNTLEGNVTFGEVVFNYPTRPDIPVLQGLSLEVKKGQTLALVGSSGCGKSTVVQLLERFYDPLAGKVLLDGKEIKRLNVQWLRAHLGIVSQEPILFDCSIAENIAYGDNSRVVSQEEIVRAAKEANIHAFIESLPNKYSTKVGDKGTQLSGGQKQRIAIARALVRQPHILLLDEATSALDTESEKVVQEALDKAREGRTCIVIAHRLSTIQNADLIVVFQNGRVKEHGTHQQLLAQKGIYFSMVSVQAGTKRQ

In the case of `OC1(c2ccc(Cl)cc2)c2ccccc2C2=NCCN21` (stereo not drawn) [Compound A, 5-(4-chlorophenyl)-2,3-dihydroimidazo[1,2-b]isoindol-5-ol, reference compound], the “Relative ATP-dependent transport” value is recorded as 99.11 ± 9.38 % of control (5.00 μM nominal) and 97.83 ± 5.19 % of control (50.00 μM nominal). Further, the “maximum inhibition of MDR1-mediated NMQ accumulation” value (2-concentration assay, up to 100 μM (Compound A up to 50 μM)) is reported as “did not inhibit; also recorded: not an in vitro inhibitor”. Further, the Maximum % inhibition result (MDR1, inside-out membrane vesicles, NMQ (1 μM), NIO: No inhibition observed) was “NIO”. Where the note is “human, Relative inhibition, 5.00 μM nominal”, this compound showed an inhibition at 5 μM of 1%. In addition, the inhibition at 50 μM (human, Relative inhibition, 50.00 μM nominal) turned out to be 2%.
